Assay results published in patent US11116738B2, “Methods for treating neutropenia using retinoid agonists” (CHILDREN'S HOSPITAL LOS ANGELES, priority 2012, dated 2021).

Tests used:
[1] = system: CD34+ cells; experiment: Morphologic analysis of granulocytic differentiation of CD34+ cells; assay type: cell-based, human; details: for neutrophil morphologic differentiation, promyelocyte to segmented stage (in words): G-CSF 25 ng/ml or Am80 2.5 nM; for efficacy as inducer of granulocytic differentiation (in words): CD34+ cells, FIG. 6, day 12-13
Protocol: (§1) Normal human primitive umbilical cord blood CD34+ cells were from AllCells (Emeryville, Calif.). CD34+ cells were expanded^29 about 50× by using StemSpan serum-free medium (StemCell Technologies, Vancouver, Canada) for 6 days according to the manufacturer's protocol. To induce granulopoiesis, CD34+ cells were cultured with myeloid medium supplemented with 25 ng/ml of G-CSF^17,29 for 6-12 days. Lymphoid and erythroid cells were blocked during granulopoiesis by addition of hydrocortisone and exclusion of erythropoietin.^17, 29 All-trans retinoic acid (RA) was from Sigma (St. Louis, Mo.), while the retinoid agonists Am80, CH55, and IT-YA-01115 (ITYA) were from Research Foundation ITSUU Laboratory (Tokyo, Japan). Each retinoid compound was dissolved in ethanol. The experimentally determined conditions, using 25 ng/ml of G-CSF^17,29 or 2.5 nM of Am80 for granulocytic induction of 6 days (FIG. 1), were applied in the studies.
Cell suspensions were cytocentrifuged onto Micro slides, followed by methanol fixation and stained with Wright-Giemsa (Sigma) as described.^17,29 The morphologic indicators of differentiation were evaluated under a Zeiss Axioplan microscope, and images were color balanced with Adobe Photoshop as described.^17
Cells suspended in PBS containing 0.5% BSA and 2 mM EDTA were mixed with anti-CD15 antibodies conjugated to magnetic microbeads (Miltenyi Biotec, Bergish Gladbach, Germany) for incubation of 30 min at 4° C. CD15+ subpopulation was then purified by using magnetic sorter (Miltenyi Biotec, Bergish Gladbach, Germany) according to the manufacturer's protocol.

[2] = system: CD34+ cells; assay type: cell-based; details: for cell death rate (in words) / cell proliferation (in words): CD34+ cells, FIG. 6B, 6D
Protocol: as §1, with “[…].” for “Lymphoid and erythroid cells were blocked during granulopoiesis by addition of hydrocortisone and exclusion of erythropoietin.^17, 29 All-trans retinoic acid (RA) was from Sigma (St. Louis, Mo.), while the retinoid agonists Am80, CH55, and IT-YA-01115 (ITYA) were from Research Foundation ITSUU Laboratory (Tokyo, Japan).”
Cell proliferation was determined by cell count with a standard hemocytometer, as described.^17,29 Briefly, equal numbers of cells plated in triplicate were counted for up to 13 days after 72 hr of plating. By using trypan blue exclusion, cell proliferation and its associated cell death in the cultures were measured simultaneously.

[3] = system: neutrophils induced from CD34+ cells; experiment: Degranulation analysis by Western blotting with or without E. coli stimuli; assay type: cell-based, human; details: FIGS. 1, 2
Protocol: Western blotting (WB) was performed as described.^15 Antibodies for lactoferrin (Abcam, Cambridge, UK), MMP-9 (Merck Chemicals, Darmstadt, Germany), and LL-37 (Biolegend, San Diego, Calif.) were used in analyses.
Cells were incubated with or without E. coli DH5α (MOI of 5; cell to bacteria ratio 1:5) in serum-free DMEM medium for 30 min at 37° C. Both cell pellets and supernatants were collected by 3,000-rpm centrifugation for 7 min. The cell pellets were suspended with 100 μg/ml of gentamicin and incubated at 37° C. for 1 hr, followed by collection of cells and extraction of cellular proteins. The supernatant was filtered with a 0.22-μm filter (Pall corporation, Ann Arbor, Mich.) and proteins in the supernatant were then concentrated by using an Amicon Ultra-4 centrifugal filter unit designed to collect proteins with a mass greater than 3,000 daltons (Millipore, Billerica, Mass.). The quantity of the proteins was measured by using Bio-Rad DC Protein Assay (Hercules, Calif.).^29 The change in granule protein levels with or without E. coli stimuli was analyzed in parallel by WB.

[4] = system: neutropenic mice; experiment: Neutrophil recovery in CPA-induced neutropenic mice; assay type: in vivo, C57BL6/J mice
[5] = system: acute promyelocytic leukemia (APL); details: APL patients; cited from earlier work
[6] = system: S. aureus; experiment: Bactericidal activity in vitro of neutrophils purified from PB of treated neutropenic mice
Protocol: Each 5×10^5 to 2×10^6 of freshly purified PBN as well as ex vivo-induced GIN and AIN were suspended with 500 μl of culture medium (DMEM with 10% of FBS) in 1.5-ml tubes. Cells were incubated with log-phase Escherichia coli (E. coli) DH5α (provided by collaborator) or Staphylococcus aureus (S. aureus; ATCC) at an MOI of 5 or 10 at 37° C. for 15, 30, and/or 60 min, whereas bacteria in the absence of cells were used to determine growth. The samples with or without cells were centrifuged at 1000-rpm at each time point. Extracellular bacteria in the presence of cells were collected from the supernatants, and enumerated by plating different dilutions (20 μL each) on blood agar. Cell pellets collected from the samples infected with bacteria were further incubated with 100 μg/ml of gentamicin (Sigma) for 1 hr at 37° C. to kill external bacteria. Cells were then washed twice and lysed with 100 μL of 0.5% Triton X-100. Different-dilution aliquots (20 μL for each) of viable intracellular bacteria recovered from the cell lysates were plated on blood agar. The numbers of extracellular and viable intracellular bacteria at each time point were determined by CFU counts as described,^5,30 while the number of phagocytosed and killed bacteria was based on the counts of extracellular and viable intracellular bacteria to the number of relevant bacteria control in the neutrophil-free condition.^5,30

Molecule	neutrophil morphologic differentiation, promyelocyte to segmented stage (in words) ([1]; 6 days)	granulocytic differentiation (in words) ([1]; Am80 2.5 nM, 6 days)	efficacy as inducer of granulocytic differentiation (in words) [1]	toxicity (in words) ([2]; Am80 2.5 nM, 6 days)	cell death (in words) ([2]; Am80 10 nM)	cell death rate (in words) [2]	cell proliferation (in words) [2]	granulocytic morphologic differentiation and granule production/secretion compared with G-CSF (in words) [3]	neutrophil recovery (in words) ([4]; day 3 post-CPA, Am80 5 mg/kg vs G-CSF of 250 μg, lower level of Ficoll-paque)	efficiency relative to RA or other retinoids as differentiation therapy [5]	toxicity relative to RA or other retinoids (in words) [5]	efficacy of mobilized neutrophils against S aureus infection (in words) [6]	monocytes induced ([1]; G-CSF 25 ng/ml, 6 days)	granulocytic differentiation and monocytic induction by treatment time (in words) ([1]; G-CSF for 6, 9 and 12 days)	neutrophil recovery (in words) ([4]; day 5, injection for 2 consecutive days)
CC1(C)CCC(C)(C)c2cc(NC(=O)c3ccc(C(=O)O)cc3)ccc21 [Am80, tamibarotene]	sufficiently induced	profoundly induced granulocytic differentiation with negligible monocytic induction	promote granulocytic differentiation with similar effectiveness	less toxicity than 5 nM of Am80	induced more cell death	lower than seen with either CH55 or RA	inhibited cell proliferation	more effective than G-CSF	competitive neutrophil recovery	approximately 10 fold	lower toxicity	significantly more efficacious against S aureus infection than those by G-CSF			
CC(C)(C)c1cc(C(=O)/C=C/c2ccc(C(=O)O)cc2)cc(C(C)(C)C)c1 [CH55]			promote granulocytic differentiation with similar effectiveness				inhibited cell proliferation								
CC1=C(/C=C/C(C)=C/C=C/C(C)=C/C(=O)O)C(C)(C)CCC1 [RA, all-trans retinoic acid]			promote granulocytic differentiation with similar effectiveness				inhibited cell proliferation								
G-CSF: recombinant granulocyte colony-stimulating factor (protein, UniProt P09919 31-207, looked up) Granulocyte …: TPLGPASSLPQSFLLKCLEQVRKIQGDGAALQEKLVSECATYKLCHPEELVLLGHSLGIPWAPLSSCPSQALQLAGCLSQLHSGLFLYQGLLQALEGISPELGPTLDTLQLDVADFATTIWQQMEELGMAPALQPTQGAMPAFASAFQRRAGGVLVASHLQSFLEVSYRVLRHLAQP	induced more myeloblasts as well as promyelocytes and myelocytes than banded and segmented neutrophils		significantly less efficacious			lower rate of cell death compared to RA	greater cell proliferation						about 10%	more effective granulocytic differentiation with the lowest rate of monocytic induction on day 6	remarkably accelerated neutrophil recovery
